Measured values from US20160030416A1, “METHODS OF TREATING B2-BRADYKININ RECEPTOR MEDIATED ANGIOEDEMA” (SHIRE HUMAN GENETIC THERAPIES, INC., priority 2013, published 2016).

Legend:
[1] = target: T1, human B2-bradykinin receptor (Homo sapiens, UniProt P30411); assay: [3H]bradykinin competition binding assay in HEK 293 cells; design: expressed in transfected cells; details: 2 nM [3H]bradykinin, 90-minute incubation
T1 sequence (P30411 1-391): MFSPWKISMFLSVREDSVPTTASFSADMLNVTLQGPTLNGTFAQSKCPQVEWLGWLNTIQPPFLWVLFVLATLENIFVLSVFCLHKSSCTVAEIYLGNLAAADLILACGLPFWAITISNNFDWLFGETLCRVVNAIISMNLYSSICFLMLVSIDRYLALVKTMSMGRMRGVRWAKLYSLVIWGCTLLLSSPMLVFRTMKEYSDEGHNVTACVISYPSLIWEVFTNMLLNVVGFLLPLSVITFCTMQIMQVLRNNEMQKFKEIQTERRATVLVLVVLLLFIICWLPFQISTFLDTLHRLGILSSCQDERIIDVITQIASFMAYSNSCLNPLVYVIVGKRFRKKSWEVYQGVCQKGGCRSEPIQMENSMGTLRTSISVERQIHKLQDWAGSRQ
Procedure: For determination of non-specific binding 1.25 μL of a 10 mM bradykinin (BK) solution was added to 248.8 μL incubation buffer (containing 2 nM [^3H]BK). […] Appropriate controls were prepared in the same method.
Human embryonic kidney (HEK) 293 cells stably express recombinant human B2-bradykinin receptors (10 pmol/mg protein) and were added to 96-well culture-trays and cultivated for 1-3 days, followed by incubation with 100 μL of each of the incubation buffers containing [^3H]BK. After a 90-minute incubation period and washing (4×PBS (phosphate buffered saline)) supernatants of the cell mixtures were transferred to scintillation vials and assayed for [^3H]BK in a beta-counter. Results of counts per minute (cpm) for non-specific binding were subtracted from the total cpm and were used for curve fit and IC50 calculation.

[2] = Pharmacokinetics, single oral gavage, Yucatan mini-pig; type: in vivo, female Yucatan Miniature Swine; details: PO 10 mg/kg
Procedure: CFMQ (HGT3711) was administered to female Yucatan Miniature Swine (mini-pig; n=3) by a single oral gavage at 10 mg/kg (concentration 2 mg/mL) at a dose volume of […]. This study utilized the spray-dried dispersion (SDD) (50; 50 with polymer; HPMCAS) formulation of CFMQ (HGT3711) (see below). Blood samples were taken via jugular or other suitable vein puncture prior to administration and at 0.083 (5 min), 0.25 (15 min), 0.50 (30 min), 1, 2, 4, 8, 12 and 24 hours post dose. Plasma concentrations of CFMQ (HGT3711) were determined by LC-MS/MS.

[3] = Extrapolation of human oral dose by allometric scaling and pharmacokinetic simulation; details: human equivalent dose of 0.8 mg/kg
Procedure: A pharmacokinetic extrapolation for a human oral dose was performed using allometric scaling of clearance and volume of distribution. The human pharmacokinetic values were extrapolated from in vivo mouse, rat, dog and monkey pharmacokinetic studies. […] This model was based on the assumption that all of the clearance pathways in the human were captured in the pre-clinical species.

V1a (h) = target: T2, V1a (h) (Homo sapiens, UniProt P37288); assay: Off-target receptor binding: V1a
T2 construct: expressed in transfected cells; host or cells: CHO or HEK 293 (not assigned per receptor)
Procedure: To determine the affinity to the B2-bradykinin receptor, CFMQ was compared to a diverse set of receptors and reference agents in an in vitro assay using cells from rat heart, urinary bladder, cerebral cortex, as well as human recombinant cells (CHO and HEK 293) and other cell lines. Each assay included a ligand at a specific concentration (concentration ranging from 0.007-10 nM), in addition to a non-specific ligand (concentration ranging from […]) for incubation periods ranging from 15 minutes to 6 hours at 4°-37° C. The specific binding to the receptors was defined as the difference between the total binding and the nonspecific binding, determined in the presence of an excess of unlabeled CFMQ. The concentration causing a half-maximal inhibition of control specific binding (IC50 values) and inhibition constants (Ki) were determined, and each reference compound was within the accepted limits of the historic average (±0.5 log units).

plasma extravasation [4] = assay: Plasma extravasation (Evans blue in bladder), oral gavage, female WT mice; type: in vivo
Procedure: The efficacy of CFMQ (HGT3711) following orally administration was studied in female WT mice. Eight mice per group received either vehicle or CFMQ (HGT3711) at 1.0, 3.0, 10, or 30 mg/kg by oral gavage. An additional dose group received Firazyr® (icatibant-0.4 mg/kg) as a subcutaneous (SC) injection. Similar to the previous studies, inhibition of EB content in the dried bladder (μg EB per milligram of tissue weight) was utilized as measurement of efficacy.

plasma extravasation [5] = assay: Plasma extravasation (Evans blue in bladder), oral gavage, wild-type male mice; type: in vivo, wild-type (WT) C57/BL6 male mice; details: for inhibition of plasma extravasation at % (compared to vehicle controls): after 64 minutes
Description: In vivo experiments in both wild-type (WT) C57BL/6J mice and C1-inhibited knock out (C1 INH KO) mice measured pharmacodynamic efficacy by the ability of CFMQ to block plasma extravasation, which is causative to edema, the most important symptom requiring treatment in HAE subjects. This plasma extravasation model has been used extensively in the literature to investigate the efficacy of bradykinin receptor antagonists. (Han et al., “Increased vascular permeability in C1 inhibitor-deficient mice mediated by the bradykinin type 2 receptor,” J Clin Invest, 2002 April; 109(8): 1057-1063.)
The uptake and effective blocking of plasma extravasation of CFMQ (HGT3711) was examined following oral administration in wild-type (WT) C57/BL6 male mice (n=4/dose group). Mice received a single oral gavage of CFMQ (HGT3711) (10 μL/g) at 3.0 or 10 mg/kg. Blood samples were taken at 20 and 60 minutes post-dose. Following oral administration CFMQ (HGT3711) administration and prior to the terminal time point, mice received an IV injection of Evans blue (EB) dye (30 mg/kg) and were sacrificed. Similar to the IV study, EB concentration in the formamide extract was determined spectrophotometrically (μg EB per milligram of tissue) and efficacy was determined by inhibiting the accumulation of EB in the bladder.

[6] = female, Yucatan, minipig, plasma

T2 sequence (P37288 whole entry): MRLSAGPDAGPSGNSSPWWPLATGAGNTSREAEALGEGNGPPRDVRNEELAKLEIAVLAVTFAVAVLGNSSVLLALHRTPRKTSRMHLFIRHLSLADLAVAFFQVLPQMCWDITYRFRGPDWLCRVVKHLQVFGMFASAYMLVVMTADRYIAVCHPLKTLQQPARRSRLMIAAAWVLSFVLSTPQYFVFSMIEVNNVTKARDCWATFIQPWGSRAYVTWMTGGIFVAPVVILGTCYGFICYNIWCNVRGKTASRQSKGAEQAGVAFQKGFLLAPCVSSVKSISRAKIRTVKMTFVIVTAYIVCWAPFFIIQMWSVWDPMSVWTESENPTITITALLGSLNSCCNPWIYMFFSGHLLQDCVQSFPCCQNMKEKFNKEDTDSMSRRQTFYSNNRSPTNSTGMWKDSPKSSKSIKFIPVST

IC50 [1]: 3.3 nM
clinical observations ([2]; mini-pig): no abnormal clinical observations
AUC(0-inf) [2, 6]: 11100 ng·h/mL
AUC(0-t) [2, 6]: 10600 ng·h/mL
half-life [2, 6]: 57 h
concentration at 4 hr ([2]; female, Yucatan, pig (miniature swine), plasma, 4.0 hr, read-out: Average Concentration of HGT3711): 1150 ng/mL
concentration at 8 hr ([2]; female, Yucatan, pig (miniature swine), plasma, 8.0 hr, read-out: Average Concentration of HGT3711): 284 ng/mL
concentration at 12 hr ([2]; female, Yucatan, pig (miniature swine), plasma, 12 hr, read-out: Average Concentration of HGT3711): 112 ng/mL
concentration at 24 hr ([2]; female, Yucatan, pig (miniature swine), plasma, 24 hr, read-out: Average Concentration of HGT3711): 14.2 ng/mL
concentration at 0 hr ([2]; female, Yucatan, pig (minipig), plasma, 0 hr, read-out: Average Concentration of HGT3711): 0 ng/mL
concentration at 0.25 hr ([2]; female, Yucatan, pig (minipig), plasma, 0.25 hr, read-out: Average Concentration of HGT3711): 80 ng/mL
concentration at 0.5 hr ([2]; female, Yucatan, pig (minipig), plasma, 0.5 hr, read-out: Average Concentration of HGT3711): 596 ng/mL
concentration at 1 hr ([2]; female, Yucatan, pig (minipig), plasma, 1.0 hr, read-out: Average Concentration of HGT3711): 1560 ng/mL
concentration at 2 hr ([2]; female, Yucatan, pig (minipig), plasma, 2.0 hr, read-out: Average Concentration of HGT3711): 2060 ng/mL
time plasma levels stay above the predicted efficacious levels ([3]; bioavailability 25%): greater than 5 hours
time plasma levels stay above the predicted efficacious levels ([3]; bioavailability 50%): > 10 h
time plasma levels stay above the predicted efficacious levels ([3]; bioavailability 75%): > 12 h
IC50 (V1a (h)): 1500 nM
Ki (V1a (h)): 9400 nM
nH (V1a (h)): 1.3
inhibition at 10 µM (V1a (h); CFMQ at 10 μM): 51%
plasma value (plasma extravasation [4]; oral 10.0 mg/kg): 267 nM
Structure (SMILES): Cc1cc(Cl)c(COc2cccc3c(-n4cc(F)cn4)cc(C)nc23)c(Cn2cccc(C#N)c2=O)n1 [CFMQ, 1-((4-Chloro-3-(((4-(4-fluoro-1H-pyrazol-1-yl)-2-methylquinolin-8-yl)oxy)methyl)-6-methylpyridin-2-yl)methyl)-2-oxo-1,2-dihydropyridine-3-carbonitrile]
inhibition of EB accumulation in the bladder (plasma extravasation [4]; oral 10 mg/kg, female WT mice): ~100%
efficacy compared with 0.4 mg/kg SC Firazyr (plasma extravasation [4]; oral 10.0 mg/kg, female WT mice): equally effective
inhibition of EB accumulation in the bladder (plasma extravasation [4]; oral 30 mg/kg, female WT mice): ~100%
minimally-effective dose (MED) (plasma extravasation [4]; oral gavage, female WT mice): 3.0 mg/kg
inhibition of plasma extravasation to % (compared to vehicle controls) (plasma extravasation [5]; oral 3.0 mg/kg, 4 minutes post dose): 56%
inhibition of plasma extravasation to % (compared to vehicle controls) (plasma extravasation [5]; oral 3.0 mg/kg, 24 minutes post dose): 58%
inhibition of plasma extravasation at % (compared to vehicle controls) (plasma extravasation [5]; oral 3.0 mg/kg): 72%
inhibition of plasma extravasation to % (compared to vehicle controls) (plasma extravasation [5]; oral 10 mg/kg, 4 minutes post dose): 14%
inhibition of plasma extravasation to % (compared to vehicle controls) (plasma extravasation [5]; oral 10 mg/kg, 24 minutes post dose): 21%
inhibition of plasma extravasation at % (compared to vehicle controls) (plasma extravasation [5]; oral 10 mg/kg): 75%
